# Results: article PMC7435868, “Structure-Based Virtual Screening, Synthesis and Biological Evaluation of Potential FAK-FAT Domain Inhibitors for Treatment of Metastatic Cancer” (Molecules, 2020)
# pIC50: −log10 of the molar value.
# Test system: T47D
# Test: Cell viability assay (CellTiter Glo), T47D
# Format: cell-based, human
# Details: Homo sapiens, T47D, 72 h, 72 h incubation, mean of independent triplicate experiments, read-out: In vitro anti-proliferative activity IC50, T47D ER+ PR+/- HER-
# Experimental: (§1) The antiproliferative activity of compound I as well as its newly synthesised analogues (5a–i) was evaluated in vitro against the three human breast cancer cell lines MDA-MB-231 (TNBC), T47D (ER^+, HER^−), and BT474 (ER^+, HER^+) as well as a human pancreatic cancer cell line MIAPaCa2. The seeding of the corresponding cell lines started one day before incubation, which lasted for 72 h with the different concentrations of the tested compounds. CellTiter Glo reagent (25 μL) was added to the cell plate. The luminescence was analysed after 10 min using a PerkinElmer Envision instrument. The test compounds were used at ten different triplicate concentrations in half log increments up to 100 μM.
row,pIC50,Structure (SMILES)
1,4.82,"Cl.NCC(c1ccc(Cl)cc1)c1ccc(OC(F)(F)F)cc1 (stereo not drawn) [5g, 2-(4-chlorophenyl)-2-(4-trifluoromethoxyphenyl)ethan-1-aminium chloride]"
2,4.36,"COc1ccc(C(CN)c2ccc(OC)cc2)cc1 [5i, 2,2-Bis(4-methoxyphenyl)ethan-1-aminium chloride]"

# The next lines start with the molecule.
row,Structure (SMILES),pIC50
1,"CC(C)(C)c1ccc(C(CN)c2ccc(SC(F)(F)F)cc2)cc1.Cl (stereo not drawn) [5b, 2-(4-tert-butylphenyl)-2-(4-(trifluoromethyl)thiophenyl)ethan-1-aminium chloride]",4.94
2,"CC(C)(C)c1ccc(C(CN)c2cccc(F)c2)cc1 (stereo not drawn) [5e, 2-(4-tert-butylphenyl)-2-(3-fluorophenyl)ethan-1-aminium chloride]",4.84

# Test system: MDA-MB-231
# Test: Cell viability assay (CellTiter Glo), MDA-MB-231
# Format: cell-based
# Details: Homo sapiens, 72 h incubation, mean of independent triplicate experiments, read-out: In vitro anti-proliferative activity IC50, MDA-MB-231 ER- PR- HER-
# Experimental: as §1
row,pIC50,Structure (SMILES)
1,4.77,"Cl.NCC(c1ccc(Cl)cc1)c1ccc(OC(F)(F)F)cc1 (stereo not drawn) [5g, 2-(4-chlorophenyl)-2-(4-trifluoromethoxyphenyl)ethan-1-aminium chloride]"
2,4.33,"COc1ccc(C(CN)c2ccc(OC)cc2)cc1 [5i, 2,2-Bis(4-methoxyphenyl)ethan-1-aminium chloride]"

# The next lines start with the molecule.
row,Structure (SMILES),pIC50
1,"CC(C)(C)c1ccc(C(CN)c2ccc(SC(F)(F)F)cc2)cc1.Cl (stereo not drawn) [5b, 2-(4-tert-butylphenyl)-2-(4-(trifluoromethyl)thiophenyl)ethan-1-aminium chloride]",4.93
2,"CC(C)(C)c1ccc(C(CN)c2cccc(F)c2)cc1 (stereo not drawn) [5e, 2-(4-tert-butylphenyl)-2-(3-fluorophenyl)ethan-1-aminium chloride]",4.85

# Test system: not listed separately
# Test: Turbidimetric aqueous solubility
# Format: physicochemical
# Details: buffered aqueous solution (PBS pH 7.4, 1% DMSO), 37 °C, 2 h
# Experimental: Both the estimated precipitation range (lower and upper bound) and a mid-range value were measured. Nicardipine and pyrene were used as control compounds.
# The test compound was diluted in buffer to give a range of concentrations (1, 3, 10, 30, and 100 μM; final DMSO concentration 1%) and incubated at 37 °C for 2 hr.
# The test compound (10 mM in DMSO) was serially diluted to give solutions of 0.1, 0.3, 1, and 3 mM in DMSO. Each test compound concentration was then further diluted 1 to 100 in buffer (typically 0.01 M phosphate buffered saline pH 7.4) so that the final DMSO concentration was 1%, and the final test compound concentrations were 1, 3, 10, 30, and 100 μM. The experiment was performed at 37 °C and each concentration was incubated in 7 replicate wells. The plates were incubated for 2 h at 37 °C before the absorbance was measured at 620 nm. Nicardipine and pyrene were included as control compounds. The solubility of nicardipine is pH dependent whereas the solubility of pyrene is pH independent.
# An estimated precipitation range (lower and upper bound) and a calculated mid-range value were returned, along with any relevant comments, in the form of an Excel spreadsheet.
"Estimated Precipitation Range, Upper Bound [µM]",Structure (SMILES),"Estimated Precipitation Range, Calculated Mid-Range [µM]","Estimated Precipitation Range, Lower Bound [µM]"
30,"COC(=O)C1=C(C)NC(C)=C(C(=O)OCCN(C)Cc2ccccc2)C1c1cccc([N+](=O)[O-])c1 (stereo not drawn) [nicardipine, reference compound]",–,–
20,"CC(C)(C)c1ccc(C(CN)c2ccc(SC(F)(F)F)cc2)cc1.Cl (stereo not drawn) [5b, 2-(4-tert-butylphenyl)-2-(4-(trifluoromethyl)thiophenyl)ethan-1-aminium chloride]",11.5,3

Structure (SMILES),"Estimated Precipitation Range, Upper Bound [µM]","Estimated Precipitation Range, Calculated Mid-Range [µM]","Estimated Precipitation Range, Lower Bound [µM]"
"c1cc2ccc3cccc4ccc(c1)c2c34 [pyrene, reference compound]",10,6.5,3

# Same assay, conditions: turbidimetric, 37 °C, 2 h
row,Structure (SMILES),Aqueous solubility (in words)
1,"CC(C)(C)c1ccc(C(CN)c2ccc(SC(F)(F)F)cc2)cc1.Cl (stereo not drawn) [5b, 2-(4-tert-butylphenyl)-2-(4-(trifluoromethyl)thiophenyl)ethan-1-aminium chloride]",relatively reduced solubility comparable to pyrene

# Test system: MIAPaCa2
# Test: Cell viability assay (CellTiter Glo), MIAPaCa2
# Format: cell-based
# Details: Homo sapiens, MIA PaCa-2, 72 h incubation, mean of independent triplicate experiments, read-out: In vitro anti-proliferative activity IC50, MIAPaCa2
# Experimental: as §1
row,pIC50,Structure (SMILES)
1,4.34,"Cl.NCC(c1ccc(Cl)cc1)c1ccc(OC(F)(F)F)cc1 (stereo not drawn) [5g, 2-(4-chlorophenyl)-2-(4-trifluoromethoxyphenyl)ethan-1-aminium chloride]"
2,4.31,"COc1ccc(C(CN)c2ccc(OC)cc2)cc1 [5i, 2,2-Bis(4-methoxyphenyl)ethan-1-aminium chloride]"

# Second part, the molecule before the results:
row,Structure (SMILES),pIC50
1,"CC(C)(C)c1ccc(C(CN)c2ccc(SC(F)(F)F)cc2)cc1.Cl (stereo not drawn) [5b, 2-(4-tert-butylphenyl)-2-(4-(trifluoromethyl)thiophenyl)ethan-1-aminium chloride]",4.80
2,"CC(C)(C)c1ccc(C(CN)c2cccc(F)c2)cc1 (stereo not drawn) [5e, 2-(4-tert-butylphenyl)-2-(3-fluorophenyl)ethan-1-aminium chloride]",4.77

# Test system: not listed separately
# Test: Microsomal metabolic stability
# Details: human liver microsomes, 0 min
# Experimental: Half-life (t1/2) values were measured at five time points.
# Intrinsic clearance values (CLint) with standard error and t1⁄2 values were measured.
# The final incubation volume was 50 μL. A minus cofactor control incubation was included for each compound tested where 0.1 M phosphate buffer pH 7.4 was added instead of NADPH (minus NADPH). Two control compounds were included with each species. All incubations were performed singularly for each test compound.
# The reactions were stopped by transferring 20 μL of incubate to 60 μL methanol at the appropriate time points. The termination plates were centrifuged at 2500 rpm for 20 min at 4 °C to precipitate the protein.
# Following protein precipitation, the sample supernatants were combined in cassettes of up to 4 compounds, the internal standard was added, and samples were analysed using Cyprotex generic LC-MS/MS conditions.
# From a plot of ln peak area ratio (compound peak area/internal standard peak area) against time, the gradient of the line was determined.
row,"Compound Remaining (% of 0 min), 0 min",Structure (SMILES)
1,100 % of 0 min,"Cl.NCC(c1ccc(Cl)cc1)c1ccc(OC(F)(F)F)cc1 (stereo not drawn) [5g, 2-(4-chlorophenyl)-2-(4-trifluoromethoxyphenyl)ethan-1-aminium chloride]"

# Same assay, conditions: human liver microsomes, 5 min
row,"Compound Remaining (% of 0 min), 5 min",Structure (SMILES)
1,99.0 % of 0 min,"Cl.NCC(c1ccc(Cl)cc1)c1ccc(OC(F)(F)F)cc1 (stereo not drawn) [5g, 2-(4-chlorophenyl)-2-(4-trifluoromethoxyphenyl)ethan-1-aminium chloride]"

# Same assay, conditions: human liver microsomes, 15 min
row,"Compound Remaining (% of 0 min), 15 min",Structure (SMILES)
1,96.2 % of 0 min,"Cl.NCC(c1ccc(Cl)cc1)c1ccc(OC(F)(F)F)cc1 (stereo not drawn) [5g, 2-(4-chlorophenyl)-2-(4-trifluoromethoxyphenyl)ethan-1-aminium chloride]"

# Same assay, conditions: human liver microsomes, 30 min
row,"Compound Remaining (% of 0 min), 30 min",Structure (SMILES)
1,86.8 % of 0 min,"Cl.NCC(c1ccc(Cl)cc1)c1ccc(OC(F)(F)F)cc1 (stereo not drawn) [5g, 2-(4-chlorophenyl)-2-(4-trifluoromethoxyphenyl)ethan-1-aminium chloride]"

# Same assay, conditions: human liver microsomes, 45 min
row,"Compound Remaining (% of 0 min), 45 min",Structure (SMILES)
1,72.8 % of 0 min,"Cl.NCC(c1ccc(Cl)cc1)c1ccc(OC(F)(F)F)cc1 (stereo not drawn) [5g, 2-(4-chlorophenyl)-2-(4-trifluoromethoxyphenyl)ethan-1-aminium chloride]"

# Same assay, conditions: human liver microsomes, minus NADPH control, 45 min
row,"Compound Remaining (% of 0 min), Control",Structure (SMILES)
1,86.6 % of 0 min,"Cl.NCC(c1ccc(Cl)cc1)c1ccc(OC(F)(F)F)cc1 (stereo not drawn) [5g, 2-(4-chlorophenyl)-2-(4-trifluoromethoxyphenyl)ethan-1-aminium chloride]"

# Same assay, conditions: human, pooled liver microsomes, pH 7.4
half-life at 3 μM [h],microsomal CLint at 3 μM [µL/min/mg],Structure (SMILES)
1.67,13.9,"Cl.NCC(c1ccc(Cl)cc1)c1ccc(OC(F)(F)F)cc1 (stereo not drawn) [5g, 2-(4-chlorophenyl)-2-(4-trifluoromethoxyphenyl)ethan-1-aminium chloride]"

# Target: hERG potassium channel (Homo sapiens, UniProt Q12809)
# Test: hERG channel inhibition (IonWorks automated patch clamp, CHO-hERG cells)
# Details: not given
# Chain of hERG potassium channel (Q12809 whole entry): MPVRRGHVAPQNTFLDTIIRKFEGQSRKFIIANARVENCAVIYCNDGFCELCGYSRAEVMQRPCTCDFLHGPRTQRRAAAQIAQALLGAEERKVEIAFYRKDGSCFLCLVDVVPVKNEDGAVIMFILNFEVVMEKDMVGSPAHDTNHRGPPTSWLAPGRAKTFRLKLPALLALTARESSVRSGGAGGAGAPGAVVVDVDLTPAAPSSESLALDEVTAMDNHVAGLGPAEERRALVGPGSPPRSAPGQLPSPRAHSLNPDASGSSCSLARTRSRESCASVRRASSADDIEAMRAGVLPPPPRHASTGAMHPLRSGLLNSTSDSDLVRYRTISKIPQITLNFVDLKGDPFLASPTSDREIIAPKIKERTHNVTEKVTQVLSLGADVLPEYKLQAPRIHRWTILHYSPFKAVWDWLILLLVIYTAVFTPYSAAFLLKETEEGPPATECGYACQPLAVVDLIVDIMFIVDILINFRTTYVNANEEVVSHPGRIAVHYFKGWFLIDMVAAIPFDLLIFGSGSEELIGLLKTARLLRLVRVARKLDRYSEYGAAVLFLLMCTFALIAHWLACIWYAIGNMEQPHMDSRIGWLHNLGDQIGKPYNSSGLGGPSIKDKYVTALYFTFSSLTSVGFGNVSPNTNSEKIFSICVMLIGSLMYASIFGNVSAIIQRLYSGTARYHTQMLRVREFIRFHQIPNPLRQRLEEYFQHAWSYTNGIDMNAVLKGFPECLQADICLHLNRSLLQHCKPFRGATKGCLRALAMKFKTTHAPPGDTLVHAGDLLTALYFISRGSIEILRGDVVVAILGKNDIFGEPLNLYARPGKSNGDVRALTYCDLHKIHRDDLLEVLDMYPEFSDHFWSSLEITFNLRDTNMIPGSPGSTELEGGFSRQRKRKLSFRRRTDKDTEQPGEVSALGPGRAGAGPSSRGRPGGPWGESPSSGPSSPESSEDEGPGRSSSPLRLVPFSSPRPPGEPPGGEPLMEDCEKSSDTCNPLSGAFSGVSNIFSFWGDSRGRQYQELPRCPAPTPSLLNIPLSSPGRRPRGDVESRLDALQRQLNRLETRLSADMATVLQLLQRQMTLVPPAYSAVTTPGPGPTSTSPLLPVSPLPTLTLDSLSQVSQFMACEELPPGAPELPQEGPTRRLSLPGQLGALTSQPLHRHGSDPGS
row,Structure (SMILES),pIC50
1,"COc1ccc(C(CN)c2ccc(OC)cc2)cc1 [5i, 2,2-Bis(4-methoxyphenyl)ethan-1-aminium chloride]",5.22

# Test system: BT474
# Test: Cell viability assay (CellTiter Glo), BT474
# Format: cell-based, human
# Details: Homo sapiens, BT-474, 72 h, 72 h incubation, mean of independent triplicate experiments, read-out: In vitro anti-proliferative activity IC50, BT474 ER+ PR+/- HER+
# Experimental: as §1
row,pIC50,Structure (SMILES)
1,4.81,"Cl.NCC(c1ccc(Cl)cc1)c1ccc(OC(F)(F)F)cc1 (stereo not drawn) [5g, 2-(4-chlorophenyl)-2-(4-trifluoromethoxyphenyl)ethan-1-aminium chloride]"
2,4.35,"COc1ccc(C(CN)c2ccc(OC)cc2)cc1 [5i, 2,2-Bis(4-methoxyphenyl)ethan-1-aminium chloride]"

# Continued, molecule first:
row,Structure (SMILES),pIC50
1,"CC(C)(C)c1ccc(C(CN)c2ccc(SC(F)(F)F)cc2)cc1.Cl (stereo not drawn) [5b, 2-(4-tert-butylphenyl)-2-(4-(trifluoromethyl)thiophenyl)ethan-1-aminium chloride]",4.90
2,"CC(C)(C)c1ccc(C(CN)c2cccc(F)c2)cc1 (stereo not drawn) [5e, 2-(4-tert-butylphenyl)-2-(3-fluorophenyl)ethan-1-aminium chloride]",4.82
